Test results published in patent US20220395003A1, “Methods for Use in Food Processing and Preservation” (priority 2019, published 2022).

How the values were obtained:
[1] = tested on: microbial growth on the surface of beef carcass; test: Microbiological analysis of low and high surface areas of beef carcass (Example 2)
Description: A 0.3% aqueous solution of chitosan formed as described above having 0.01% sodium sulfite and 0.1% acetic acid was poured into a commercial dry vapor steam cleaning unit and allowed to equilibrate for about 15 minutes. The steam was applied to a beef carcass by the method of […] as disclosed in U.S. Pat. No. 9,149,036 which is incorporated herein by reference in its entirety. For comparison, a beef carcass was sprayed with an aqueous solution of about 3% acetic acid by standard methods known in the art. Prior to applying the chitosan steam or the aqueous acetic acid solution, the beef carcasses were washed thoroughly with hot water. The beef carcasses were maintained at 4 degrees centigrade. Microbiological analysis was performed on the surface of the carcasses at pretreatment and at 1, 24, and 72 hours after treatment. […] The study in Example 1 was repeated, applying the previously-described 0.3% chitosan, acetic acid, and sodium sulfite solution on a low surface area and a high surface area of a beef carcass.

[2] = tested on: microbial growth on the surface of beef carcasses; test: Microbiological analysis of beef carcass surface after treatment (Example 1)
Description: A 0.3% aqueous solution of chitosan formed as described above having 0.01% sodium sulfite and 0.1% acetic acid was poured into a commercial dry vapor steam cleaning unit and allowed to equilibrate for about 15 minutes. The steam was applied to a beef carcass by the method of […] as disclosed in U.S. Pat. No. 9,149,036 which is incorporated herein by reference in its entirety. For comparison, a beef carcass was sprayed with an aqueous solution of about 3% acetic acid by standard methods known in the art. Prior to applying the chitosan steam or the aqueous acetic acid solution, the beef carcasses were washed thoroughly with hot water. The beef carcasses were maintained at 4 degrees centigrade.

## CC(=O)O [Water wash + acetic acid, acetic acid]
[1]; High (A) surface, 1 h
  microbial growth: 1.59 log colony forming units
[1]; High (A) surface, 48 h
  microbial growth: 1.35 log colony forming units
[1]; High (A) surface, 168 h
  microbial growth: 1.49 log colony forming units
[1]; High (B) surface, 1 h
  microbial growth: 2.03 log colony forming units
[1]; High (B) surface, 48 h
  microbial growth: 1.80 log colony forming units
[1]; High (B) surface, 168 h
  microbial growth: 1.77 log colony forming units
[1]; High (C) surface, 1 h
  microbial growth: 1.88 log colony forming units
[1]; High (C) surface, 48 h
  microbial growth: 1.65 log colony forming units
[1]; High (C) surface, 168 h
  microbial growth: 1.43 log colony forming units
[1]; Low (A) surface, 1 h
  microbial growth: 1.53 log colony forming units
[1]; Low (A) surface, 48 h
  microbial growth: 1.09 log colony forming units
[1]; Low (A) surface, 168 h
  microbial growth: 0.00 log colony forming units
[1]; Low (B) surface, 1 h
  microbial growth: 1.73 log colony forming units
[1]; Low (B) surface, 48 h
  microbial growth: 1.57 log colony forming units
[1]; Low (B) surface, 168 h
  microbial growth: 1.45 log colony forming units
[1]; Low (C) surface, 1 h
  microbial growth: 0.43 log colony forming units
[1]; Low (C) surface, 48 h
  microbial growth: 0.94 log colony forming units
[1]; Low (C) surface, 168 h
  microbial growth: 1.35 log colony forming units
[2]; Flank, 0 h (pretreatment), 4 degrees centigrade
  microbial growth: 2.60 log colony forming units
[2]; Flank, 1 h after treatment
  microbial growth: 2.10 log colony forming units
[2]; Flank, 24 h after treatment
  microbial growth: 2.10 log colony forming units
[2]; Flank, 72 h after treatment
  microbial growth: 2.00 log colony forming units
[2]; Loin, 0 h (pretreatment), 4 degrees centigrade
  microbial growth: 3.70 log colony forming units
[2]; Loin, 1 h after treatment
  microbial growth: 2.40 log colony forming units
[2]; Loin, 24 h after treatment
  microbial growth: 1.80 log colony forming units
[2]; Loin, 72 h after treatment
  microbial growth: 2.00 log colony forming units
